Results: ChEMBL document CHEMBL1681726, “Discovery of orally available tetrahydroquinoline-based glucocorticoid receptor agonists” (Bioorg Med Chem Lett, 2011)

Columns and labels:
[1] = Cmax in Sprague-Dawley rat at 30 mg/kg, po; type: ADME, organism-based; set-up: dose 30 mg/kg, route oral; conditions: in vivo
Glucocorticoid receptor [2] = molecular target: T1, Glucocorticoid receptor (Homo sapiens, UniProt P04150); experiment: Displacement of radiolabeled Dexamethasone from GR
T1 sequence (P04150 whole entry): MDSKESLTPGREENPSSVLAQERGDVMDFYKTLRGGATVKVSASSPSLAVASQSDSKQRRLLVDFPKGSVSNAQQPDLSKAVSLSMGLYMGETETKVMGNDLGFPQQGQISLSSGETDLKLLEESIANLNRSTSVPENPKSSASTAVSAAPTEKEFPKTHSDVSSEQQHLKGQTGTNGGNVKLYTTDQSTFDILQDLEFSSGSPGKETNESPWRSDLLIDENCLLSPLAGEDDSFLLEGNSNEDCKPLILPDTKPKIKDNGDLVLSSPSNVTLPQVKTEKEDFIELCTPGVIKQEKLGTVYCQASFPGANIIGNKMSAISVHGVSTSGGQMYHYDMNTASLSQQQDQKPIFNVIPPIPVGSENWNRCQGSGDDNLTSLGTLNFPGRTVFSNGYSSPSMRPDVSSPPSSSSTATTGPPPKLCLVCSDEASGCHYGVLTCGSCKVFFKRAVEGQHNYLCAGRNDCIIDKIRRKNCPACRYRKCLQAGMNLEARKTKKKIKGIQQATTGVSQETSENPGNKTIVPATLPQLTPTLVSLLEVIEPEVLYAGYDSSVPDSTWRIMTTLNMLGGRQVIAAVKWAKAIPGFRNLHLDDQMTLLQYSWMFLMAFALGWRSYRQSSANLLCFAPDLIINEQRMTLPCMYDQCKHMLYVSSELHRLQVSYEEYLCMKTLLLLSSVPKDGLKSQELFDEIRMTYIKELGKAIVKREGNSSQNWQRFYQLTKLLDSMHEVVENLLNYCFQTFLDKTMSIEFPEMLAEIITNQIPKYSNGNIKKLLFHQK

Androgen receptor = molecular target: T2, Androgen receptor (Homo sapiens, UniProt P10275); experiment: Binding affinity to AR
T2 sequence (P10275 whole entry): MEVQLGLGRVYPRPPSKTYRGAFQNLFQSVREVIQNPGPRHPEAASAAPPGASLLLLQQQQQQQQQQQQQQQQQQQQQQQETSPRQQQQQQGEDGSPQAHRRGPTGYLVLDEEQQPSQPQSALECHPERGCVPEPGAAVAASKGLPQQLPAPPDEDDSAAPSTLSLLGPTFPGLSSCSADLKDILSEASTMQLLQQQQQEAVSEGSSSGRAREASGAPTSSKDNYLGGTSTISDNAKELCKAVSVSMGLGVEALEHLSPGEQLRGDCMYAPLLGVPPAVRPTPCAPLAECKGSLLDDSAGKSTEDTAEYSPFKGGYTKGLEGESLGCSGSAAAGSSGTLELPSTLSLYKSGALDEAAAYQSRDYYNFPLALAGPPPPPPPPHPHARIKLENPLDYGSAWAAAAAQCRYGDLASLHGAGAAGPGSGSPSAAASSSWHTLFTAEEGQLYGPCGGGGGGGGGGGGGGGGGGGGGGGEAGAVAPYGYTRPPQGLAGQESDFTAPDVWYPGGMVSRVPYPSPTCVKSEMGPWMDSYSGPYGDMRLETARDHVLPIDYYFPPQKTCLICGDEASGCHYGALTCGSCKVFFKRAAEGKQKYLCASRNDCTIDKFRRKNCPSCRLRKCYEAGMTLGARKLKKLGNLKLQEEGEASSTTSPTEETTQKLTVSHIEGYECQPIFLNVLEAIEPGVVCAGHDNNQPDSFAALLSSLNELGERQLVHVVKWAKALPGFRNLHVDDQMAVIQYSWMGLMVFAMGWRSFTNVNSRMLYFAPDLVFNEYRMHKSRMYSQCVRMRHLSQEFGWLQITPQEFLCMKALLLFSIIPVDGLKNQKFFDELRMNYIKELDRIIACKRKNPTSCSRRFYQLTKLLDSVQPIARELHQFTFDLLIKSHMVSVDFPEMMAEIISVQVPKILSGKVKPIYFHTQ

Mus musculus = experiment: Antiinflammatory activity in po dosed mouse assessed as carrageenan-induced hind paw edema measured after 3 hrs post dose; type: functional
[3] = Metabolic stability in human liver microsomes by HPLC-MS/MS; type: ADME, Microsome
Glucocorticoid receptor [4] = molecular target: T1, Glucocorticoid receptor; experiment: Agonist activity at GR expressed in african green monkey CV1 cells transfected with luciferase gene linked to MMTV promoter assessed as induction of luciferase transactivation activity relative to Dexamethasone; type: functional, cell-based, CV-1
[5] = Metabolic stability in CD-1 […] liver microsomes by HPLC-MS/MS; type: ADME, Microsome; conditions: CD-1, liver microsomes
Glucocorticoid receptor [6] = molecular target: T1, Glucocorticoid receptor; experiment: Agonist activity at GR expressed in IL-1beta- and TNFalpha-stimulated HepG2 cells assessed as inhibition of NFKB- or AP-1 mediated E-selectin transcription by luciferase reporter gene assay relative to Dexamethasone; type: functional, cell-based
[7] = Selectivity ratio of Ki for GR to Ki for PR
Glucocorticoid receptor [8] = molecular target: T1, Glucocorticoid receptor; experiment: Agonist activity at human GR expressed in NHDF cells assessed as inhibition of IL-6 production by ELISA relative to Dexamethasone; type: functional, cell-based
Progesterone receptor = molecular target: T3, Progesterone receptor (Homo sapiens, UniProt P06401); experiment: Binding affinity to PR
T3 sequence (P06401 whole entry): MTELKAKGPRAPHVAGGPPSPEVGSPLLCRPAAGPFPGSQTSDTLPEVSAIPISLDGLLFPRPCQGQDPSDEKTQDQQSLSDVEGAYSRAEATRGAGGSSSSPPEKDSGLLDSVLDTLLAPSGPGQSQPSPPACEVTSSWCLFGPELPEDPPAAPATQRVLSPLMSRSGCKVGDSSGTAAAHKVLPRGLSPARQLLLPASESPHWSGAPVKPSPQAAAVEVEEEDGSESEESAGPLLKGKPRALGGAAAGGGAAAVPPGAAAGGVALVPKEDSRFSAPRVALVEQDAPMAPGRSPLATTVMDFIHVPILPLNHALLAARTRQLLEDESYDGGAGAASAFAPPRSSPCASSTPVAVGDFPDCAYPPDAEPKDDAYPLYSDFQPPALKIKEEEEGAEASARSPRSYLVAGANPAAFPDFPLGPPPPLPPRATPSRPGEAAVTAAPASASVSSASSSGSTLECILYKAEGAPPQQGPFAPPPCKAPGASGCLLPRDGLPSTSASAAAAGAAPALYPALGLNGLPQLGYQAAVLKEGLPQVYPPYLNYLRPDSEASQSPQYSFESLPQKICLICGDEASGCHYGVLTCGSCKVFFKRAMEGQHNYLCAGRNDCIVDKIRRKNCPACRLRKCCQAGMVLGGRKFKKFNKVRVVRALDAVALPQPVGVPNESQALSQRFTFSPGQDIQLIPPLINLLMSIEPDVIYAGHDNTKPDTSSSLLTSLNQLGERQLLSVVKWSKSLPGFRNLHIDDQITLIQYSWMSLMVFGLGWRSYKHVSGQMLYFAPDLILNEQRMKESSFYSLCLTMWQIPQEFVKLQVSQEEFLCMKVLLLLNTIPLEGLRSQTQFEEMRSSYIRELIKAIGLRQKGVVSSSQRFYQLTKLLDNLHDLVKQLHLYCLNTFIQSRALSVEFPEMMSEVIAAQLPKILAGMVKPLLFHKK

Cmax [1]: 3600 ng/mL | Ki (Glucocorticoid receptor [2]): 2.5 nM | Ki (Androgen receptor): 1430 nM | half-life [3]: 48 min | EC50 (Glucocorticoid receptor [4]): 0.6 nM | half-life [5]: 30 min | IC50 (Glucocorticoid receptor [6]): 1.5 nM | Ratio Ki [7]: > 500 | IC50 (Glucocorticoid receptor [8]): 11 nM | Ki (Progesterone receptor): 2100 nM
SMILES: C[C@H]1c2c(cc(F)c(-c3cccc4cc[nH]c34)c2F)NC(C)(C)[C@@H]1O (racemic)
ED50 (Mus musculus): 6.6 mg/kg
